Data as given in the supplement of paper PMC10307832.

Columns and labels:
Assay in all cases: relative viability (nuclei count vs DMSO), 5 days (fraction); higher = more cells survive
[1] = compound: COc1cc2ncn(-c3cc(OCc4ccccc4C(F)(F)F)c(C(N)=O)s3)c2cc1OC + CCNC(=O)c1noc(-c2cc(C(C)C)c(O)cc2O)c1-c1ccc(CN2CCOCC2)cc1 [Luminespib] (partner 0.01 µM)
How it was run: (§1)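 Lung cancer cell lines, seeded in 1536-well plates, were treated the following day by pin tool with a single drug or with five library-drug doses (not always all listed) in √10 steps on top of a fixed anchor-drug dose. Cells were fixed and nuclei stained in one step after 5 days, and nuclei were counted. Relative viability is the nuclei count for treated wells divided by that for vehicle wells, reported as medians of duplicate plates.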

[2] = compound: COc1cc2ncn(-c3cc(OCc4ccccc4C(F)(F)F)c(C(N)=O)s3)c2cc1OC + Nc1ncn([C@H]2C[C@H](O)[C@@H](CO)O2)c(=O)n1 [Decitabine] (partner 2 µM)
How it was run: as §1

[3] = compound: COc1cc2ncn(-c3cc(OCc4ccccc4C(F)(F)F)c(C(N)=O)s3)c2cc1OC + O=C(c1cc(Cc2n[nH]c(=O)c3ccccc23)ccc1F)N1CCN(C(=O)C2CC2)CC1 [Olaparib] (partner 8 µM)
How it was run: as §1

[4] = compound: COc1cc2ncn(-c3cc(OCc4ccccc4C(F)(F)F)c(C(N)=O)s3)c2cc1OC + CS(=O)(=O)CCNCc1ccc(-c2ccc3ncnc(Nc4ccc(OCc5cccc(F)c5)c(Cl)c4)c3c2)o1 [Lapatinib] (partner 2 µM)
How it was run: as §1

| Cell Line | relative viability ([1]; first compound 0.05 µM) | relative viability ([1]; first compound 0.1581 µM) | relative viability ([1]; first compound 0.5 µM) | relative viability ([1]; first compound 1.581 µM) | relative viability ([1]; first compound 5 µM) | relative viability ([2]; first compound 0.05 µM) | relative viability ([2]; first compound 0.1581 µM) | relative viability ([2]; first compound 0.5 µM) | relative viability ([2]; first compound 1.581 µM) | relative viability ([2]; first compound 5 µM) | relative viability ([3]; first compound 0.05 µM) | relative viability ([3]; first compound 0.1581 µM) | relative viability ([3]; first compound 0.5 µM) | relative viability ([3]; first compound 1.581 µM) | relative viability ([3]; first compound 5 µM) | relative viability ([4]; first compound 0.05 µM) | relative viability ([4]; first compound 0.1581 µM) | relative viability ([4]; first compound 0.5 µM) | relative viability ([4]; first compound 1.581 µM) | relative viability ([4]; first compound 5 µM) |
| --- | --- | --- | --- | --- | --- | --- | --- | --- | --- | --- | --- | --- | --- | --- | --- | --- | --- | --- | --- | --- |
| ChaGo-K-1 | 0.617 | 0.516 | 0.285 | 0.18 | 0.14 | 0.567 | 0.504 | 0.43 | 0.255 | 0.162 | 0.398 | 0.389 | 0.312 | 0.208 | 0.12 |  |  |  |  |  |
| NCI-H1755 | 0.463 | 0.388 | 0.474 | 0.224 | 0.181 | 0.702 | 0.682 | 0.716 | 0.57 | 0.397 | 0.816 | 0.827 | 0.714 | 0.447 | 0.319 | 1.03 | 1.09 | 0.868 | 0.33 | 0.281 |
| NCI-H2228 | 0.114 | 0.159 | 0.147 | 0.139 | 0.126 |  |  |  |  |  | 0.224 | 0.721 | 0.201 | 0.157 | 0.194 | 1.26 | 0.998 | 0.297 | 0.162 | 0.251 |
| NCI-H2087 | 0.174 | 0.177 | 0.162 | 0.14 | 0.167 | 0.317 | 0.227 | 0.152 | 0.0875 | 0.106 | 0.432 | 0.493 | 0.346 | 0.098 | 0.0728 | 0.995 | 1.06 | 0.582 | 0.175 | 0.121 |
| LU99A | 0.225 | 0.304 | 0.207 | 0.172 | 0.203 | 0.767 | 0.825 | 0.604 | 0.194 | 0.191 | 0.241 | 0.273 | 0.225 | 0.152 | 0.108 | 1 | 0.948 | 0.577 | 0.226 | 0.183 |
| NCI-H1355 | 0.635 | 0.623 | 0.424 | 0.221 | 0.163 | 0.29 | 0.333 | 0.282 | 0.187 | 0.169 | 0.486 | 0.671 | 0.3 | 0.15 | 0.128 | 0.966 | 0.964 | 0.771 | 0.22 | 0.152 |
| NCI-H520 | 0.218 | 0.25 | 0.21 | 0.261 | 0.2 | 0.482 | 0.525 | 0.261 | 0.217 | 0.219 | 0.198 | 0.247 | 0.193 | 0.182 | 0.142 | 1.01 | 0.814 | 0.387 | 0.172 | 0.149 |
| NCI-H727 | 0.396 | 0.311 | 0.334 | 0.291 | 0.31 | 1.03 | 0.927 | 0.825 | 0.616 | 0.568 | 0.676 | 0.672 | 0.68 | 0.489 | 0.535 | 0.803 | 0.694 | 0.541 | 0.338 | 0.296 |
| NCI-H661 | 0.812 | 0.872 | 0.528 | 0.255 | 0.212 | 0.566 | 0.496 | 0.363 | 0.277 | 0.237 | 0.68 | 0.681 | 0.349 | 0.332 | 0.274 | 0.431 | 0.517 | 0.467 | 0.18 | 0.251 |
| NCI-H650 | 0.748 | 0.759 | 0.632 | 0.118 | 0.37 | 0.329 | 0.309 | 0.261 | 0.175 | 0.236 | 0.367 | 0.41 | 0.26 | 0.15 | 0.272 | 0.903 | 1.2 | 0.531 | 0.171 | 0.247 |
| HCC-78 |  |  |  |  |  | 0.688 | 0.652 | 0.671 | 0.473 | 0.446 | 0.939 | 0.927 | 0.645 | 0.601 | 0.468 | 0.75 | 0.429 | 0.542 | 0.566 | 0.804 |
| HCC-366 |  |  |  |  |  | 0.255 | 0.372 | 0.326 | 0.0359 | 0.0203 | 0.204 | 0.273 | 0.0764 | 0.0193 | 0.0147 | 1.11 | 1.02 | 0.359 | 0.0141 | 0.0131 |
| LCLC-103H | 0.771 | 0.927 | 0.594 | 0.273 | 0.151 | 0.729 | 0.785 | 0.657 | 0.355 | 0.257 | 0.687 | 0.768 | 0.651 | 0.281 | 0.212 |  |  |  |  |  |
| NCI-H1563 | 0.587 | 0.501 | 0.513 | 0.474 | 0.4 |  |  |  |  |  |  |  |  |  |  | 1.04 | 1.02 | 0.877 | 0.748 | 0.588 |
| EBC-1 |  |  |  |  |  |  |  |  |  |  | 0.622 | 0.758 | 0.217 | 0.154 | 0.128 | 0.195 | 0.216 | 0.199 | 0.172 | 0.176 |
| Calu-6 |  |  |  |  |  |  |  |  |  |  | 0.541 | 0.454 | 0.172 | 0.086 | 0.0935 | 1.02 | 0.872 | 0.315 | 0.129 | 0.128 |
